Laboratory results taken from patent US11753410B2, “Hormone receptor modulators for treating metabolic mutagenic and fibrotic conditions and disorders” (priority 2017, dated 2023).

Target: T1, ligand binding domain of human FXR (Homo sapiens, UniProt Q96RI1)
T1 construct: purchased Thermofisher (LanthaScreen) PV4833
T1 sequence (Q96RI1 262-486 limits assumed): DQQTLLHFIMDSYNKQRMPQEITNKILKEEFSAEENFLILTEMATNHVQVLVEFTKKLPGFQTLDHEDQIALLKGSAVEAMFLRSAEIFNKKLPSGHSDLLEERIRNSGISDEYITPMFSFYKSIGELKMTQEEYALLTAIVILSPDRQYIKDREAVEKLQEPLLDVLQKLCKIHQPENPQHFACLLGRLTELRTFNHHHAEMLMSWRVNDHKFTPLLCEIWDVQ
Test: biochemical
Conditions: for Emax: extent of activation relative to GW4064, read-out: Ligand Binding % Efficacy; for EC50: −log EC50, concentration required to produce 50% activation, FRET 520 nm/495 nm, 1 hour at room temperature, read-out: Ligand Binding pEC50 (converted)
Protocol: The affinity of FXR ligands for the ligand binding domain of FXR was determined using a commercially available human FXR ligand binding assay (LanthaScreen, Thermofisher Cat #PV4833). […] Binding of FXR ligands to the FXR ligand binding domain promotes binding of the fluorescein-labelled SRC2-2 peptide. This causes a FRET signal between the terbium-labelled anti-GST antibody and the fluorescein-labelled SRC peptide which are both bound to the FXR ligand binding domain.
Test compounds are dissolved in DMSO and a 3-fold serial dilution series is generated, then further diluted into assay buffer. The compounds are mixed with 5 nM GST-tagged FXR ligand binding domain, 5 nM Tb-labelled anti-GST antibody and 500 nM fluorescein-labelled SRC2-2 peptide in a pH7.4 buffer. The reaction is incubated at room temperature for 1 hour, then the FRET signal is measured as the ratio of the 520 nm/495 nm emission following excitation at 340 nm. The change in FRET signal is plotted against the test article concentration and fit to a 3-parameter logistical equation.

Row | Compound | Emax [%] | EC50 [nM]
1 | C[C@@H]1[C@@H]2C[C@@H](C[C@H]2OCc2c(C3CC3)cnn2-c2c(Cl)cccc2Cl)N1c1ccc(C(=O)NS(=O)(=O)C2CC2)c(F)c1 [Compound I-29, N-(cyclopropanesulfonyl)-4-[(1S,3R,4S,5R)-5-{[4-cyclopropyl-1-(2,6-dichlorophenyl)-1H-pyrazol-5-yl]methoxy}-3-methyl-2-azabicyclo[2.2.1]heptan-2-yl]-2-fluorobenzamide] | 59 | 200
2 | O=C(O)CCc1ccc(N2C[C@@H]3C[C@H]2C[C@H]3OCc2c(C3CC3)cnn2-c2c(F)cccc2F)c(F)c1 [Compound I-35, 3-{4-[(1S,4S,5R)-5-{[4-cyclopropyl-1-(2,6-difluorophenyl)-1H-pyrazol-5-yl]methoxy}-2-azabicyclo[2.2.1]heptan-2-yl]-3-fluorophenyl}propanoic acid] | 152 | 631
3 | Cc1cccc(C)c1-n1ncc(C2CC2)c1CO[C@@H]1C[C@@H]2C[C@H]1CN2c1ccc(CCC(=O)O)cc1F [Compound I-36, 3-{4-[(1S,4S,5R)-5-{[4-cyclopropyl-1-(2,6-dimethylphenyl)-1H-pyrazol-5-yl]methoxy}-2-azabicyclo[2.2.1]heptan-2-yl]-3-fluorophenyl}propanoic acid] | 134 | 158
4 | Cc1cccc(Cl)c1-n1ncc(C2CC2)c1CO[C@@H]1C[C@@H]2C[C@H]1CN2c1ccc(CCC(=O)O)cc1F [Compound I-37, 3-{4-[(1S,4S,5R)-5-{[1-(2-chloro-6-methylphenyl)-4-cyclopropyl-1H-pyrazol-5-yl]methoxy}-2-azabicyclo[2.2.1]heptan-2-yl]-3-fluorophenyl}propanoic acid] | 176 | 39.8
5 | O=C(O)CCc1ccc(N2C[C@@H]3C[C@H]2C[C@H]3OCc2c(C3CC3)cnn2-c2c(F)cccc2Cl)c(F)c1 [Compound I-38, 3-{4-[(1S,4S,5R)-5-{[1-(2-chloro-6-fluorophenyl)-4-cyclopropyl-1H-pyrazol-5-yl]methoxy}-2-azabicyclo[2.2.1]heptan-2-yl]-3-fluorophenyl}propanoic acid] | 185 | 158
6 | O=C(O)CCc1ccc(N2C(=O)[C@@H]3C[C@H]2C[C@H]3OCc2c(C3CC3)cnn2-c2c(Cl)cccc2Cl)c(F)c1 [Compound I-39, 3-{4-[(1S,4R,5R)-5-{[4-cyclopropyl-1-(2,6-dichlorophenyl)-1H-pyrazol-5-yl]methoxy}-3-oxo-2-azabicyclo[2.2.1]heptan-2-yl]-3-fluorophenyl}propanoic acid] | 136 | 
7 | O=C(O)C1CC(c2ccc(N3C[C@@H]4C[C@H]3C[C@H]4OCc3c(C4CC4)cnn3-c3c(Cl)cccc3Cl)c(F)c2)C1 (stereo partly drawn) [Compound I-40, 3-{4-[(1S,4S,5R)-5-{[4-cyclopropyl-1-(2,6-dichlorophenyl)-1H-pyrazol-5-yl]methoxy}-2-azabicyclo[2.2.1]heptan-2-yl]-3-fluorophenyl}cyclobutane-1-carboxylic acid] | 156 | 31.6
